ChEMBL document CHEMBL1201862, “PubChem BioAssay data set” (2004)
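96-well plates; 48 h exposure; 5 concentrations. Endpoints by linear interpolation between flanking doses. Not reached: highest tested concentration assigned. At the GI50, growth is halved.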 Active and inactive are the calls of the source. Rule as the data show it: active = GI50 up to about 1.1 µM and inactive = higher.

What was measured:
Assay in all cases: NCI-60 cell line screen, 48 h
[1] = system: DMS-114
[2] = system: LXFL 529
[3] = system: LOX IMVI
[4] = system: A549
[5] = system: DMS-273
[6] = system: HCT-116
[7] = system: NCI-H23
[8] = system: TK-10
[9] = system: SK-MEL-28
[10] = system: OVCAR-8
[11] = system: SK-OV-3
[12] = system: M19-MEL
[13] = system: OVCAR-4
[14] = system: HT-29
[15] = system: COLO 205
[16] = system: CCRF-CEM
[17] = system: SK-MEL-5
[18] = system: RXF 631
[19] = system: IGROV-1
[20] = system: HOP-18
[21] = system: SR
[22] = system: SF-295
[23] = system: NCI-H460
[24] = system: SF-268
[25] = system: DLD-1
[26] = system: SF-539
[27] = system: ACHN
[28] = system: HOP-62
[29] = system: UACC-257
[30] = system: HCT-15
[31] = system: CAKI-1
[32] = system: HL-60
[33] = system: XF498
[34] = system: OVCAR-3
[35] = system: UACC-62
[36] = system: HCC 2998
[37] = system: SW-620
[38] = system: MOLT-4
[39] = system: 786-0
[40] = system: OVCAR-5
[41] = system: K562
[42] = system: SK-MEL-2
[43] = system: UO-31
[44] = system: EKVX
[45] = system: HOP-92
[46] = system: NCI-H522
[47] = system: KM12
[48] = system: U-251
[49] = system: Malme-3M
[50] = system: SNB-75
[51] = system: SNB-78
[52] = system: RPMI-8226
[53] = system: SN12C
[54] = system: M14
[55] = system: SNB-19
[56] = system: NCI-H226
[57] = system: KM-20L2

How did the GI50 [1] turn out when `CCOC(=O)C1C(=O)c2ccccc2CN1Cc1ccccc1` (configuration not stated) was run?
The GI50 was > 100 µM (inactive).

What about the GI50 [2] of the same compound?
The GI50 was > 100 µM (inactive).

And the GI50 [3]?
Its GI50 is > 100 µM (inactive).

And the GI50 [4]?
The GI50 was > 100 µM (inactive).

What about the GI50 [5] of the same compound?
The GI50 was > 100 µM (inactive).

And the GI50 [6]?
Its GI50 is > 100 µM (inactive).

And the GI50 [7]?
The GI50 was > 100 µM (inactive).

What about the GI50 [8] of the same compound?
The GI50 was > 100 µM (inactive).

What about the GI50 [9] of the same compound?
The GI50 was > 100 µM (inactive).

And the GI50 [10]?
The GI50 was > 100 µM (inactive).

And the GI50 [11]?
Its GI50 is > 100 µM (inactive).

And the GI50 [12]?
The GI50 was > 100 µM (inactive).

And the GI50 [13]?
Its GI50 is > 100 µM (inactive).

And the GI50 [14]?
The GI50 was > 100 µM (inactive).

What about the GI50 [15] of the same compound?
Its GI50 is > 100 µM (inactive).

And the GI50 [16]?
The GI50 was > 100 µM (inactive).

What about the GI50 [17] of the same compound?
The GI50 was > 100 µM (inactive).

What about the GI50 [18] of the same compound?
The GI50 was > 100 µM (inactive).

And the GI50 [19]?
Its GI50 is > 100 µM (inactive).

And the GI50 [20]?
The GI50 was > 100 µM (inactive).

What about the GI50 [21] of the same compound?
Its GI50 is > 100 µM (inactive).

And the GI50 [22]?
The GI50 was > 100 µM (inactive).

What about the GI50 [23] of the same compound?
The GI50 was > 100 µM (inactive).

What about the GI50 [24] of the same compound?
The GI50 was > 100 µM (inactive).

What about the GI50 [25] of the same compound?
The GI50 was > 100 µM (inactive).

And the GI50 [26]?
Its GI50 is > 100 µM (inactive).

And the GI50 [27]?
The GI50 was > 100 µM (inactive).

What about the GI50 [28] of the same compound?
The GI50 was > 100 µM (inactive).

And the GI50 [29]?
The GI50 was > 100 µM (inactive).

And the GI50 [30]?
Its GI50 is over 100 µM.

And the GI50 [31]?
Its GI50 is > 100 µM (inactive).

And the GI50 [32]?
Its GI50 is > 100 µM (inactive).

What about the GI50 [33] of the same compound?
Its GI50 is > 100 µM (inactive).

What about the GI50 [34] of the same compound?
Its GI50 is > 100 µM (inactive).

And the GI50 [35]?
Its GI50 is > 100 µM (inactive).

What about the GI50 [36] of the same compound?
The GI50 was > 100 µM (inactive).

What about the GI50 [37] of the same compound?
Its GI50 is > 100 µM (inactive).

What about the GI50 [38] of the same compound?
The GI50 was > 100 µM (inactive).

And the GI50 [39]?
The GI50 was > 100 µM (inactive).

And the GI50 [40]?
Its GI50 is > 100 µM (inactive).

What about the GI50 [41] of the same compound?
Its GI50 is > 100 µM (inactive).

And the GI50 [42]?
The GI50 was > 100 µM (inactive).

And the GI50 [43]?
The GI50 was > 100 µM (inactive).

What about the GI50 [44] of the same compound?
The GI50 was > 100 µM (inactive).

And the GI50 [45]?
The GI50 was > 100 µM (inactive).

And the GI50 [46]?
Its GI50 is > 100 µM (inactive).

And the GI50 [47]?
Its GI50 is > 100 µM (inactive).

And the GI50 [48]?
The GI50 was > 100 µM (inactive).

And the GI50 [49]?
Its GI50 is > 100 µM (inactive).

And the GI50 [50]?
Its GI50 is > 100 µM (inactive).

And the GI50 [51]?
The GI50 was > 100 µM (inactive).

And the GI50 [52]?
Its GI50 is > 100 µM (inactive).

What about the GI50 [53] of the same compound?
The GI50 was > 100 µM (inactive).

And the GI50 [54]?
Its GI50 is > 100 µM (inactive).

What about the GI50 [55] of the same compound?
The GI50 was > 100 µM (inactive).

What about the GI50 [56] of the same compound?
The GI50 was > 100 µM (inactive).

And the GI50 [57]?
The GI50 was > 100 µM (inactive).
